Biological target: RIPK1 (Homo sapiens (Human), UniProt Q13546)
Assay: RIPK1-ADP-Glo Enzymatic Assay
Format: biochemical
Conditions: recombinant GST-RIPK1 kinase domain (residues 1-327), 25 nM, ten-point titration, 30 minutes pre-incubation
Outline: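 GST-RIPK1 kinase domain (residues 1-327, Sf21-expressed; 25 nM final) was pre-incubated 30 min at ambient temperature with compound (10-point 1:3 series from 100000 nM, 1% DMSO) in HEPES pH 7.3 buffer with 20 mM MgCl2. The reaction was started with 900 μM ATP (addition solution) and 3 μM dephosphorylated MBP and ran 150 min. Read-out was ADP-Glo luminescence, with EC50 from a four-parameter fit.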

Chain of RIPK1 (Q13546 1-327): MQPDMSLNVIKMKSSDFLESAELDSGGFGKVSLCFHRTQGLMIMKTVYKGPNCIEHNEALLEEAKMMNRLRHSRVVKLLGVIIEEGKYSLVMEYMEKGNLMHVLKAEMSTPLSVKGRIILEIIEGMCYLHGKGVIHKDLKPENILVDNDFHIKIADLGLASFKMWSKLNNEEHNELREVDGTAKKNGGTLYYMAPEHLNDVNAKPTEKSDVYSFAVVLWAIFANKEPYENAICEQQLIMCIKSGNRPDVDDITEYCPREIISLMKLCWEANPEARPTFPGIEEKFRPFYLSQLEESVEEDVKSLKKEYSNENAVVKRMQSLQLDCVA

| EC50 | Compound |
| --- | --- |
| 86 nM | O=C1N2[C@H](c3cc(F)cc(F)c3)CCN2CC12CCN(c1cnc(Cl)cn1)CC2 [Example 1.42, (S)-1-(5-chloropyrazin-2-yl)-7′-(3,5-difluorophenyl)dihydro-1′H,3′H,5′H-spiro[piperidine-4,2′-pyrazolo[1,2-a]pyrazol]-1′-one] |
| 26 nM | COc1cc(F)cc(C(=O)N2CCC3(CC2)CN2CC[C@@H](c4cc(F)cc(F)c4)N2C3=O)c1 [Example 4.27, (S)-7′-(3,5-difluorophenyl)-1-(3-fluoro-5-methoxybenzoyl) dihydro-l′H,3′H,5′H-spiro[piperidine-4,2′-pyrazolo[1,2-a]pyrazol]-l′-one] |
| 35 nM | N#Cc1cnc(N2CCC3(CC2)CN2CC[C@@H](c4cc(F)cc(F)c4)N2C3=O)nc1 [Example 1.76, (S)-2-(7′-(3,5-difluorophenyl)-1′-oxodihydro-1′H,3′H,5′H-spiro[piperidine-4,2′-pyrazolo[1,2-a]pyrazol]-1-yl)pyrimidine-5-carbonitrile] |
| 28 nM | O=C1N2[C@H](c3cc(F)cc(F)c3)CCN2CC12CCN(c1ccc(OC(F)F)cn1)CC2 [Example 2.21, (S)-1-(5-(difluoromethoxy)pyridin-2-y1)-7′-(3,5-difluorophenyl)dihydro-1′H,3′H,5′H-spiro[piperidine-4,2′-pyrazolo[1,2-a]pyrazol]-1′-one] |
| 308 nM | O=C1N2[C@H](c3cc(F)cc(F)c3)CCN2CC12CCN(c1cnccn1)CC2 [Example 1.41, (S)-7′-(3,5-difluorophenyl)-1-(pyrazin-2-yl)dihydro-1′H,3′H,5′H-spiro[piperidine-4,2′-pyrazolo[1,2-a]pyrazol]-1′-one] |
| 434 nM | O=C(c1ncccn1)N1CCC2(CC1)CN1CC[C@@H](c3cc(F)cc(F)c3)N1C2=O [Example 4.2, (S)-7′-(3,5-difluorophenyl)-1-(pyrimidine-2-carbonyl)dihydro-1′H,3′H,5′H-spiro[piperidine-4,2′-pyrazolo[1,2-a]pyrazol]-l′-one] |
| 335 nM | Cc1ccc(F)cc1C(=O)N1CCC2(CC1)CN1CC[C@@H](c3cc(F)cc(F)c3)N1C2=O [Example 4.13, (S)-7′-(3,5-difluorophenyl)-1-(5-fluoro-2-methylbenzoyl) dihydro-1′H,3′H,5′H-spiro[piperidine-4,2′-pyrazolo[1,2-a]pyrazol]-l′-one] |
| 50 nM | O=C(c1cnccn1)N1CCC2(CC1)CN1CC[C@@H](c3cc(F)cc(F)c3)N1C2=O [Example 4.1, (S)-7′-(3,5-difluorophenyl)-1-(pyrazine-2-carbonyl) dihydro-1′H,3′H,5′H-spiro [piperidine-4,2′-pyrazolo[1,2-a]pyrazol]-1′-one] |
| 366 nM | O=C1N2[C@H](c3cc(F)cc(F)c3)CCN2CC12CCN(c1noc3ccccc13)CC2 [Example 1.81, (S)-1-(benzo[d]isoxazol-3-yl)-7′-(3,5-difluorophenyl)dihydro-1′H,3′H,5′H-spiro[piperidine-4,2′-pyrazolo[1,2-a]pyrazol]-1′-one] |
| 594 nM | Cn1ccc(C(=O)N2CCC3(CC2)CN2CC[C@@H](c4cc(F)cc(F)c4)N2C3=O)n1 [Example 4.6, (S)-7′-(3,5-difluorophenyl)-1-(1-methyl-1H-pyrazole-3-carbonyl)dihydro-1′H,3′H,5′H-spiro[piperidine-4,2′-pyrazolo[1,2-a]pyrazol]-l′-one] |
| 25 nM | CC(=O)c1cccc(N2CCC3(CC2)CN2CC[C@@H](c4cc(F)cc(F)c4)N2C3=O)n1 [Example 1.64, (S)-1-(6-acetylpyridin-2-yl)-7′-(3,5-difluorophenyl)dihydro-1′H,3′H,5′H-spiro[piperidine-4,2′-pyrazolo[1,2-a]pyrazol]-1′-one] |
| 98 nM | Cc1cnn(-c2ccnc(N3CCC4(CC3)CN3CC[C@@H](c5cc(F)cc(F)c5)N3C4=O)c2)c1 [Example 2.26, (S)-7′-(3,5-difluorophenyl)-1-(4-(4-methyl-1H-pyrazol-1-yl)pyridin-2-yl)dihydro-1′H,3′H,5′H-spiro[piperidine-4,2′-pyrazolo[1,2-a]pyrazol]-1′-one] |
| 145 nM | O=C1N2[C@H](c3cc(F)cc(F)c3)CCN2CC12CCN(c1noc3ccccc13)CC2 [Example 2.6, (S)-1-(benzo[d]isoxazol-3-yl)-7′-(3,5-difluorophenyl)dihydro-1′H,3′H,5′H-spiro[piperidine-4,2′-pyrazolo[1,2-a]pyrazol]-1′-one] |
| 792 nM | O=C1N2[C@H](c3cc(F)cc(F)c3)CCN2CC12CCN(c1ncc(F)cc1C(F)F)CC2 [Example 2.9, (S)-1-(3-(difluoromethyl)-5-fluoropyridin-2-y1)-7′-(3,5-difluorophenyl)dihydro-l′H,3′H,5′H-spiro[piperidine-4,2′-pyrazolo[1,2-a]pyrazol]-1′-one] |
| 30 nM | CSc1cnc(N2CCC3(CC2)CN2CC[C@@H](c4cc(F)cc(F)c4)N2C3=O)cn1 [Example 2.20, (S)-7′-(3,5-difluorophenyl)-1-(5-(methylthio)pyrazin-2-yl)dihydro-l′H,3′H,5′H-spiro[piperidine-4,2′-pyrazolo[1,2-a]pyrazol]-1′-one] |
| 85 nM | O=C1N2[C@H](c3cc(F)cc(F)c3)CCN2CC12CCN(c1cc(C(F)(F)F)ncn1)CC2 [Example 1.94, (S)-7′-(3,5-difluorophenyl)-1-(6-(trifluoromethyl)pyrimidin-4-yl)dihydro-1′H,3′H,5′H-spiro[piperidine-4,2′-pyrazolo[1,2-a]pyrazol]-1′-one] |
| 804 nM | O=C1N2[C@H](c3cc(F)cc(F)c3)CCN2CC12CCN(c1ncccn1)CC2 [Example 1.55, (S)-7′-(3,5-difluorophenyl)-1-(pyrimidin-2-yl)dihydro-1′H,3′H,5′H-spiro[piperidine-4,2′-pyrazolo[1,2-a]pyrazol]-1′-one] |
| 176 nM | Cc1nccc(N2CCC3(CC2)CN2CC[C@@H](c4cc(F)cc(F)c4)N2C3=O)n1 [Example 1.45, (S)-7′-(3,5-difluorophenyl)-1-(2-methylpyrimidin-4-yl)dihydro-1′H,3′H,5′H-spiro[piperidine-4,2′-pyrazolo[1,2-a]pyrazol]-1′-one] |
| 153 nM | CC(C)c1nc(Cl)cc(N2CCC3(CC2)CN2CC[C@@H](c4cc(F)cc(F)c4)N2C3=O)n1 [Example 1.47, (S)-1-(6-chloro-2-isopropylpyrimidin-4-yl)-7′-(3,5-difluorophenyl)dihydro-1′H,3′H,5′H-spiro[piperidine-4,2′-pyrazolo[1,2-a]pyrazol]-1′-one] |

| Compound | EC50 |
| --- | --- |
| O=C1N2[C@H](c3cc(F)cc(F)c3)CCN2CC12CCN(c1ccc(Cl)c3ccnn13)CC2 [Example 8.1, (S)-1-(4-chloropyrazolo[1,5-α]pyridin-7-yl)-7′-(3,5-difluorophenyl) dihydro-1′H,3′H,5′H-spiro [piperidine-4,2′-pyrazolo[1,2-α]pyrazol]-1′-one] | 7 nM |
| O=C1N2[C@H](c3cc(F)cc(F)c3)CCN2CC12CCN(c1ncnc3scnc13)CC2 [Example 3.3, (S)-7′-(3,5-difluorophenyl)-1-(thiazolo[5,4-d]pyrimidin-7-yl)dihydro-1′H,3′H,5′H-spiro[piperidine-4,2′-pyrazolo[1,2-a]pyrazol]-1′-one] | 14 nM |
| O=C1N2[C@H](c3cc(F)cc(F)c3)CCN2CC12CCN(c1cccc3ccnn13)CC2 [Example 8.2, (S)-7′-(3,5-difluorophenyl)-1-(pyrazolo[1,5-α]pyridin-7-yl) dihydro-1′H,3′H,5′H-spiro [piperidine-4,2′-pyrazolo[1,2-α]pyrazol]-1′-one] | 34 nM |

Source: patent publication US20240425524A1, “SPIROTRICYCLE RIPK1 INHIBITORS AND METHODS OF USES THEREOF” (Merck Sharp & Dohme LLC, priority 2021, published 2024)
